The values below come from US20200325156A1, “HETEROARYL AMIDE COMPOUNDS, PREPARATION METHOD THEREFOR, PHARMACEUTICAL COMPOSITIONS THEREOF, AND APPLICATIONS THEREOF” (Rui Jin Hospital Affiliated to Shanghai Jiao Tong …, priority 2017, published 2020).

Broadly, the inhibition is the percentage by which the read-out fell short of the control. In general, IC50 refers to the point on the concentration scale where inhibition reaches its midpoint.

Common to all, as to format: cell-based
For experiment [1], the system named is human gastric cancer cells BGC-823. The experiment in a line: MTS cell growth inhibition, BGC-823. The settings on record: compound concentration 10 μM, 48 h, read-out: Inhibition rate against BGC-823 at 10 μM (%). The protocol:
(§1) 1) Medium: DMEM (Dulbecco's modified eagle medium) or RPMI1640 (containing 10% fetal bovine serum, 100 μg/mL ampicillin, 100 μg/mL streptomycin).
(§2) 2) Reagent: MTS reaction solution (containing 2 mg/mL of MTS (3-(4,5-dimethylthiazol-2-yl)-5-(3-carboxymethoxyphenyl)-2-(4-sulfophenyl)-2H-tetrazolium, inner salt); 100 μg/mL PES ([…])).
(§3) Human promyelocytic leukemia cells HL-60 (2×10^4 cells/well) cultured in vitro were incubated into a 96-well culture plate, the volume of cell-culture medium was 90 μL, and then 10 μL of the compound at each gradient concentration was added (the highest concentration was 10 μM, which was diluted stepwise by ⅓, and 8 concentration points were set in total; the system contained 0.1% DMSO (dimethyl sulfoxide)). The cell plate with uniformly mixed compound was cultured in a cell culture incubator (37° C.; 5% CO2) for 48 h, then 20 μμL of MTS reaction solution was added, uniformly mixed and incubated in the cell culture incubator (37° C.; 5% CO2) for 1-4 hr; OD values at 490 nm were measured by a microplate reader (VARIOSKAN FLASH, Thermo). Three parallels were set in each group of experiments, with 0.1% (a final concentration) DMSO as a negative control, and a medium without cells and compounds as a blank control. The cell growth inhibition rate was calculated by the following formula:
(§4) Cell growth inhibition rate%=1−(ODexperimental group−ODblank group)/(ODnegative group−ODblank group)×100%
(§5) 4) IC50 calculation: The semi-inhibitory concentration of the compound acting on cell was calculated using GradPad Prism 5 software according to the measured cell growth inhibition rate.
(§6) Human lung cancer cells A549, human gastric cancer cells BGC-823, human liver cancer cells HepG-2 and human breast cancer cells MCF-7, human osteosarcoma cells U2OS, human prostate cancer cells LNCAP cultured in vitro were added in a 96-well culture plate at 1,000-10,000 cells/well, incubated until adherence, and then the compound was added. As to other procedures, please refer to the method (1) above.

Experiment [2] has as its system lung cancer cell line NCI-1975. Kind of experiment: Growth inhibitory activity, NCI-1975. The settings on record: growth inhibition; read-out: Lung cancer cells IC50 NCI-1975.
Experiment [3] deals with human embryo lung cell line HFL-1. The experiment in a line: Growth inhibitory activity, HFL-1. The settings on record: HFL1, growth inhibition, normal cells.
For another experiment, the system named is leukemia cell line NB-4. The experiment in a line: Growth inhibitory activity, NB4. The settings on record: growth inhibition; read-out: Leukemia cells IC50 NB4.
The subject of experiment [4] is tumor cells (NCI-1975, HCC827, A549, SHI-1, THP-1, NB-4). Kind of experiment: Growth inhibition of tumor cells (summary over cell lines). The settings on record: range over lung cancer and leukemia cell lines. How it is done: as §1, §2
as §3, with “Three parallels were set in each group of experiments, with 0.1% (a final concentration) DMSO as a negative control, and a medium without cells and compounds as a blank control.” left out, “formula: […]” for “formula:”
4) IC50 calculation: The semi-inhibitory concentration of the compound acting on cell was calculated using GradPad Prism 5 software according to the measured cell growth inhibition rate. […]

The next experiment relates to leukemia cell line SHI-1. Kind of experiment: Growth inhibitory activity, SHI-1. The note with it: growth inhibition; read-out: Leukemia cells IC50 SHI-1.
The test system of experiment [5] is Human promyelocytic leukemia cells HL-60. Kind of experiment: MTS cell growth inhibition, HL-60. The settings on record: Homo sapiens, HL-60, 48 h, MTS; for inhibition at 10 µM: compound concentration 10 μM, read-out: Inhibition rate against HL-60 at 10 μM (%); for IC50: growth inhibition. How it is done:
as §1, §2, §3, §4, §5

Experiment [6] deals with lung cancer cell line HCC827. Kind of experiment: Growth inhibitory activity, HCC827. The note with it: Homo sapiens, growth inhibition, read-out: Lung cancer cells IC50 HCC827.
The test system of experiment [7] is human liver cancer cells HepG-2. Kind of experiment: MTS cell growth inhibition, HepG-2. The note with it: HepG2, compound concentration 10 μM, 48 h, read-out: Inhibition rate against HepG-2 at 10 μM (%). The protocol: as §1, §2, §3, §4, §5, §6
Experiment [8] deals with human breast cancer cells MCF-7. Kind of experiment: MTS cell growth inhibition, MCF-7. The note with it: MCF7, compound concentration 10 μM, 48 h, read-out: Inhibition rate against MCF-7 at 10 μM (%). The protocol:
as §1, §2, §3, §4, §5, §6

In experiment [9] the test system is normal human embryo lung cells (WI-38 and HFL-1). Kind of experiment: Growth of normal human embryo lung cells (summary).
Experiment [10] concerns human prostate cancer cells LNCAP. The experiment in a line: MTS cell growth inhibition, LNCAP. The settings on record: Homo sapiens, LNCaP, 48 h, MTS; for inhibition at 10 µM: compound concentration 10 μM, read-out: Inhibition rate against LNCAP at 10 μM (%); for IC50: growth inhibition. How it is done:
as §1, §2, §3, §4, §5, §6

The subject of experiment [11] is Human lung cancer cells A549. The experiment in a line: MTS cell growth inhibition, A549. The note with it: for inhibition at 10 µM: compound concentration 10 μM, 48 h, MTS, read-out: Inhibition rate against A549 at 10 μM (%). How it is done: as §1, §2, §3, §4, §5, §6
The subject of the next experiment is leukemia cell line THP-1. The experiment in a line: Growth inhibitory activity, THP-1. The note with it: Homo sapiens, growth inhibition, read-out: Leukemia cells IC50 THP-1.
The test system of experiment [12] is human embryo lung cell line WI-38. The experiment in a line: Growth inhibitory activity, WI-38. The settings on record: growth inhibition, normal cells.
Experiment [13] relates to human osteosarcoma cells U2OS. The experiment in a line: MTS cell growth inhibition, U2OS. The note with it: Homo sapiens, U2OS, 48 h, MTS; for inhibition at 10 µM: compound concentration 10 μM, read-out: Inhibition rate against U2OS at 10 μM (%); for IC50: growth inhibition. How it is done: as §1, §2, §3, §4, §5, §6

Molecules are shown by their SMILES.

Take `CC(C)Oc1ccc(NC(=O)c2cc3scnc3[nH]2)cc1` [Compound I-2]: the inhibition at 10 µM in [1] is 61.7%; in experiment [5], under 0%; in [7], 60.1%; in [8], 23.1%; in experiment [10], 22.2%; in experiment [11], 81.9%. The inhibition at 10 µM in [13] came to 19.4%. The IC50 is 57 nM in [2]; 8590 nM in experiment [3]; 280 nM with leukemia cell line NB-4; 8 to 280 nM in experiment [4]; 221 nM with leukemia cell line SHI-1; 8 nM in experiment [6]. The IC50 in experiment [9] was over 5000 nM; in experiment [11] (growth inhibition), 30 nM; with leukemia cell line THP-1, 2460 nM; in experiment [12], 5620 nM.

Regarding `CS(=O)(=O)c1ccc(OCc2cccc(NC(=O)c3cc4scnc4[nH]3)c2)cc1` [Compound I-32], the inhibition at 10 µM in [1] was 9.2%; in [5], 70.3%; in experiment [7] it was under 0%; in experiment [8], under 0%; in experiment [10], 41.5%; in [11] it was under 0%. Further, in experiment [13], the inhibition at 10 µM came to 45.2%. Moreover, the results for the half-inhibitory concentration (IC50) in [5], in experiment [10] and in [13] were 1850 nM, 7030 nM and 5470 nM, respectively.

Regarding `Cc1cn(-c2cc(NC(=O)c3cc4scnc4[nH]3)cc(C(F)(F)F)c2)cn1` [Compound I-35], the inhibition at 10 µM is 44.4% in [1]; 80.4% in [5]; 50.5% in [7]; under 0% in [8]; 61.9% in [10]; 59.5% in experiment [11]. In experiment [13], the inhibition at 10 µM is 42.2%. In addition, the IC50 in [5] amounted to 7030 nM; in experiment [10], 4740 nM; in [13], 7850 nM.
